Measured values from US20120040956A1, “INHIBITORS OF HIF-1 PROTEIN ACCUMULATION” (INTERMED DISCOVERY GMBH, priority 2008, published 2012).

Tested on: HIF-1α protein
Assay: Hypoxia induced HIF-1α protein accumulation in 293T cells (immunoblotting)
Format: cell-based, human
Details: 250 nM, 1 h preincubation, hypoxia 4 h, 1% O2
Protocol: Effects of IMD-026259, IMD-026260 and IMD-019064 on the stabilisation/accumulation of HIF-1α protein were investigated. 293T cells were preincubated with the indicated concentrations of all three compounds. After 1 h of pre-incubation, 293T cells were pre-incubated with the indicated concentrations of compounds and then further incubated under normoxic or hypoxic (4 h, 1% O2) conditions respectively. After lysis of cells in 1×SDS sample buffer and sonication, the samples were analyzed for HIF-1α abundance by immunoblotting.

CNCCOc1ccc2c(c1)OC1(c3ccc(Cl)cc3)C(c3ccccc3)CC(O)C21O (stereo not shown) [IMD-026260, (1,3a,8b)-3a-(4-chlorophenyl)-6-(2-(methylamino)ethoxy)-3-phenyl-2,3,3a,8b-tetrahydro-1H-benzo[d]cyclopenta[b]furan-1,8b-diol]
block of HIF-1α protein accumulation: almost completely block
